Experimental data published in patent US6667328B2, “Therapeutic agents for diabetes” (Fujimoto Brothers Co., Ltd., priority 2000, dated 2003).

Assays:
[1] = tested on: 3T3-L1 preadipocyte cells; assay: Differentiation-inducing actions on adipose cells (oil red-O staining, absorbance at 490 nm); type: cell-based; conditions: 3T3-L1, oil red-O extract absorbance at 490 nm, ratio to control group (1.0)
Procedure: The cloned cell line 3T3-L1 of the preadipocyte cells at the 9-20th generation were used. The cell suspension at a concentration of 2×10^4 cells/ml was added 500 μl/well in a 24 well microplate. Then, the microplates were cultured at 37° C. in the atmosphere of 5% CO2 for 4 days with D-MEM containing 5% inactivated fetal calf serum (hereinafter abbreviated as “FCS D-MEM”). Next, the following procedures were conducted.
(1) To test compound of this invention, 500 μl/well of the following solutions was added to each well:
1) test compound-containing medium (T-MEM) in which the test compound in a stock solution (30 mM in DMSO) was diluted with FCS D-MEM containing 0.1 μM dexamethazone and 100 ng/ml insulin (hereinafter abbreviated as DEX-Ins-FCS D-MEM);
2) FCS-D-MEM; 3) DEX-Ins-FCS D-MEM; 4) 0.1% DMSO-containing DEX-Ins-FCS D-MEM for me control wells.
(2) After above additions were done, the culture plates were incubated at 37° C. in 5% CO2 for 3 days. Then, the same operations as in the procedure (1) were repeated for exchange of the culture medium. The culture plates were incubated at 37° C. in 5% CO2 for further 3 days.
(3) After incubation, the culture medium was removed from the culture plates. Then, the FCS D-MEM was added to the FCS D-MEM-wells, and next the medium prepared for containing 100 ng/ml of insulin with the FCS D-MEM (hereinafter abbreviated as “Ins-FCS D-MEM”) was added at 500 μl/well to the T-MEM wells and DEX-Ins-FCS D-MEM wells. All culture plates were incubated for 4 days.
(4) After incubation, the culture medium was removed. For cell fixation, 500 μl/well of 10% formalin in neutral buffer was added, and left at the room temperature for approximately 20 minutes or longer. Then the formalin solution was removed, and 60% 2-propanol solution was added at 500 μl/well, then quickly removed, and the oil red-O staining solution was added at 250 μl/well. The culture plates were sealed with plate seals, and left at room temperature for 30 minutes or longer. After incubation, the staining solution was removed, and the 60% 2-propanol solution was added at 500 μl/well, and quickly removed. The cells were rinsed with water a few times, and then water drops were flipped away. A cell-lysis buffer was added at 500 μl/well, and the culture plates were sealed with plate seals, and left at 37° C. for 1 hour to extract the pigments. Next, 300 μl/well of the extract solution was transferred at a 96 well micro-plates, and then the absorbance of each extract was measured at wavelength of 490 nm.
The absorbance ratios of the respective test compounds-groups to the control group, the mean absorbance of which was designated as 1.0, are shown in Table 8. Based on the judgement that the absorbance higher than that of the control group indicates a greater differentiation-inducing activity of the test compound, the compounds of the present invention were determined to have the activity to induce differentiation of preadipocytes to adipocytes, resulting in elevating insulin sensitivity of organs. Thereby, this activity would confer the efficacy in the therapy of diabetes.

[2] = tested on: Genetically diabetic db/db mice (C57BL/ksJ Jcl-dbm db/db mice); assay: Blood sugar lowering actions in genetically diabetic mice; type: in vivo; conditions: serum glucose vs control group
Procedure: (§1) Genetically diabetic db/db mice (C57BL/ksJ Jcl-dbm db/db mice) older than 8 weeks were grouped depend on their blood sugar levels of the prior measurements in order to divide groups with almost equal mean value of the sugar level. The respective groups of db/db mice were designates as the following groups: the group given the compound of the present invention, the group of troglitazone, and the group given no administrating group. For the compounds of the present invention, two doses: 75 mg/kg and 150 mg/kg, and for troglitazone, a dose of 150 mg/kg were individually given to the mice as a forced oral administration once daily for 14 days successively. These agents were suspended in 3.0% Arabic gum solution for administration. To the control group, only the same volume of 3.0% Arabic gum solution was administered. On the next day of the final administration, each mouse was […] for sampling. The blood samples were subject to serum separation. The glucose level in the serum of each group was measured. Then, a reduction rate in a glucose level (%) compared to the control group was calculated with mean value of each group according to the equation below. […] [formula]

db/db mice = assay: Antihyperlipidemic activities in genetically diabetic mice; type: in vivo; conditions: 150 mg/kg p.o. once daily for 14 days, serum
Procedure: as §1
In the same way as described in EXAMPLE 4, db/db mice were grouped in the manner by which the respective groups had almost equivalent mean blood sugar levels. The compounds 1, 3, 13, 21 and 22 of the present invention, suspended in 3.0% Arabic gum solution, were orally administrated, with a dose of 150 mg/kg, once daily for successive 14 days. The control group of mice were given the vehicle solution only. On the next day of the final administration, each mouse was bled for sampling. The blood was subjected for serum separation, and then subjected to measurements of β-lipoproteins, free fatty acids, and triglycerides. The reduction rate (%) of each measurement compared to the control group was calculated by the equation indicated in EXAMPLE 4. […] (Table 9).

[3] = tested on: fructose-induced hyperlipidemic rats; assay: Hypotriglyceridemic activity in fructose-induced hyperlipidemic rats; type: in vivo, Sprague Dawley rats; conditions: fructose-loaded rats, 30 mg/kg p.o. once daily for 7 days; for inhibition in vivo at 30 mg/kg: Rattus norvegicus, po, 168 h, read-out: Reduction in Serum Triglyceride (%)
Procedure: The compounds were tested for a hypotriglyceridemic activity in fructose-induced hyperlipidemic rats in accordance with the method described in Nippon Yakurigaku Zasshi, 92 (3), 175-180 (1988). Sprague Dawley rats were grouped by the ranking method of body weight. Then, instead of drinking water, rats were given 75% fructose aqueous ad libitum for one week, thereby, resulting in the state of hypertriglyceridemia. The compounds of the present invention, suspended in 3% Arabic gum aqueous solution, and a dose of 30 mg/kg was orally administrated once daily for 7 days during the fructose-loading period. The control group of rats were given 3% Arabic gum aqueous solution only. Two hours later of the final administration, the rats were bled from the abdominal aorta to measure serum triglycerides and total cholesterol. The reduction rate (%) of each measurement compared to the control groups was calculated according to the equation indicated in EXAMPLE 4.

[4] = tested on: high cholesterol-fed hamsters; assay: Lipid lowering effects in high cholesterol-fed hamsters; type: in vivo, Syrian hamsters; conditions: Example 9 (Table 12), 15 mg/kg p.o.
Excerpt: According to the method described in Jpn Pharmacol Ther, 23 (suppl 4), s1047-1053 (1995), male Syrian hamstars were fed for 3 weeks with 1% cholesterol 10% coconut oil (W/W) supplemented diet, and thereby, became to be hypercholesterolemia models. Prior to administration of the compounds, under ether anesthesia, the hamsters were bled from the orbital vein for measurement of serum total cholesterol. They were grouped in the manner by which the respective groups had almost equal serum total cholesterol levels. The normal group of hamsters were fed ordinary diet. Thereafter, the compound 1 and bezafibrate were orally administered once daily at doses of 15 (for only compound 1), 30, 60 and 120 mg/kg for 7 days. Even during the treatment period, cholesterol loading was continued. Four hours later of the final administration, the hamsters were bled by cardiac puncture. The total cholesterol and triglycerides in the serum obtained were measured by the enzymatic method. The results are shown in Table 11 (the negative values mean elevation rates.)
The actions of the compounds of the present invention at a dose of 15 mg/kg were measured in the same method as described in EXAMPLE 8.

[5] = 75 mg/kg oral once daily for 14 days
[6] = 150 mg/kg oral once daily for 14 days

Row | SMILES | Absorbance Ratio [1] | inhibition in vivo at 30 mg/kg [3] | also measured
1 | N#CN=C1NC(=O)C(=Cc2ccc(Oc3ccccc3)cc2)S1 [Compound 22, 2-(N-Cyanoimino)-5-(4-phenoxybenzylidene)thiazolidin-4-one] | 1.73 | 65% | Reduction in Blood Glucose (%) [2, 5]: 16%; Reduction in Blood Glucose (%) [2, 6]: 34%; Reduction Rate (%) Free Fatty Acids (db/db mice): 41%; Reduction Rate (%) Triglycerides (db/db mice): 65%; Reduction Rate (%) β-lipoproteins (db/db mice): 56%
2 | N#CN=C1NC(=O)/C(=C\c2ccc(C=Cc3ccccc3F)cc2)S1 [Compound 8, 2-(N-Cyanoimino)-5-[(E)-4-(2-fluorostyryl)benzylidene]thiazolidin-4-one] | 1.95 | 47% | 
3 | Cc1ccc(C)c(Oc2ccc(C=C3SC(=NC#N)NC3=O)cc2)c1 [Compound 9, 2-(N-Cyanoimino)-5-[4-(2,5-dimethylphenoxy)benzylidene]thiazolidin-4-one] |  | 49% | 
4 | N#CN=C1NC(=O)C(=Cc2ccc(-c3cc4cc(Cl)ccc4o3)cc2)S1 [Compound 14, 2-(N-Cyanoimino)-5-[4-(5-chlorobenzofuran-2-yl)benzylidene]thiazolidin-4-one] |  | 36% | 
5 | N#CN=C1NC(=O)C(=Cc2ccc(Sc3ccccc3)cc2)S1 [Compound 7, 2-(N-Cyanoimino)-5-(4-phenylthiobenzylidene)thiazolidin-4-one] | 1.93 | 60% | 
6 | CCC(Oc1ccc(C)cc1)c1ccccc1 (stereo not drawn) [Compound 32] |  | 47% | 
7 | N#CN=C1NC(=O)C(=Cc2ccc(Oc3ccc(Cl)cc3)cc2)S1 [Compound 6, 2-(N-Cyanoimino)-5-[4-(4-chlorophenoxy)benzylidene]thiazolidine-4-one] |  | 84% | 
8 | N#CN=C1NC(=O)C(=Cc2cccc(Oc3ccccc3)c2)S1 [Compound 16, 2-(N-Cyanoimino)-5-(3-phenoxybenzylidene)thiazolidin-4-one] | 1.18 | 54% | 
9 | N#CN=C1NC(=O)C(=Cc2cccc(OCCc3ccccc3)c2)S1 [Compound 12, 2-(N-Cyanoimino)-5-(3-phenethyloxybenzylidene)thiazolidin-4-one] | 1.74 | 59% | 
10 | Cc1c(C)c2c(c(C)c1O)CCC(C)(COc1ccc(CC3SC(=O)NC3=O)cc1)O2 (stereo not drawn) [troglitazone, reference compound] |  |  | Reduction in Blood Glucose (%) [2, 6]: 18%
11 | N#CN=C1NC(=O)C(=Cc2ccc(OCc3ccccc3)cc2)S1 [Compound 13] | 2.51 |  | Reduction Rate (%) Free Fatty Acids (db/db mice): 38%; Reduction Rate (%) Triglycerides (db/db mice): 70%; Reduction Rate (%) β-lipoproteins (db/db mice): 65%; Reduction in Serum Triglyceride (%) [3]: 55%
12 | N#CN=C1NC(=O)C(=Cc2ccccc2OCCc2ccccc2)S1 [Compound 21, 2-(N-Cyanoimino)-5-(2-phenethyloxybenzylidene)thiazolidin-4-one] | 2.02 | 48% | Reduction Rate (%) Free Fatty Acids (db/db mice): 25%; Reduction Rate (%) Triglycerides (db/db mice): 41%; Reduction Rate (%) β-lipoproteins (db/db mice): 38%
13 | N#CN=C1NC(=O)/C(=C\c2ccc(C=Cc3ccccc3)cc2)S1.[Na] [Compound 63, 2-(N-Cyanoimino)-5-[(E)-4-stylylbenzylidene]thiazolidin-4-one Sodium Salt] |  |  | Reduction in Blood Glucose (%) [2, 5]: 32%
14 | N#CN=C1NC(=O)C(=Cc2ccc(OCCCc3ccccc3)cc2)S1 [Compound 5, 2-(N-Cyanoimino)-5-[4-(3-phenylpropoxy)benzylidene]thiazolidin-4-one] | 1.87 |  | 
15 | CC(=Cc1ccc(/C=C2/SC(=NC#N)NC2=O)cc1)c1ccccc1 [Compound 4, 2-(N-Cyanoimino)-5-[(E)-4-(β-methylstyryl)benzylidene]thiazolidin-4-one] | 2.62 | 42% | 
16 | CC(COc1ccc(C=C2SC(=NC#N)NC2=O)cc1)c1ccccc1 (stereo not drawn) [Compound 11, 2-(N-Cyanoimino)-5-[4-(2-phenylpropoxy)benzylidene]thiazolidin-4-one] |  | 62% | 
17 | N#CN=C1NC(=O)C(=Cc2ccc(OCc3ccc(Cl)cc3)cc2)S1 [Compound 19, 2-(N-Cyanoimino)-5-[4-(4-chlorobenzyloxy)benzylidene]thiazolidin-4-one] | 1.51 | 38% | 
18 | N#CN=C1NC(=O)C(=Cc2ccc(OCc3ccc4c(c3)OCO4)cc2)S1 [Compound 17, 2-(N-Cyanoimino)-5-[4-(1,3-benzodioxole-5-ylmethoxy)benzylidene]thiazolidin-4-one] |  | 37% | 
19 | CC(=Cc1ccccc1)c1ccc(/C=C2/SC(=NC#N)NC2=O)cc1 [Compound 2, 2-(N-Cyanoimino)-5-[(E)-4-(α-methylstyryl)benzylidene]thiazolidin-4-one] | 1.57 | 67% | Reduction Rate (%) Total cholesterol [4]: 27%; Reduction Rate (%) Triglyceride [4]: 57%
